# Literature values in patent publication US20250017941A1, “METHODS OF TREATING NON-HODGKIN LYMPHOMA USING 2-(2,6-DIOXOPIPERIDIN-3-YL)-4-((2-FLUORO-4-((3-MORPHOLINOAZETIDIN-1-YL)METHYL)BENZYL)AMINO)ISOINDOLINE-1,3-DIONE” (Celgene Corporation, priority 2021, published 2025).
# Where two headings read alike, the source gives them in different places.
# Experiments:
# [1] = tested on: patients with FL who had received 2 or more prior systemic therapies
# [2] = tested on: adult patients with CD20-positive indolent non-Hodgkin lymphoma refractory to rituximab
# [3] = 53 patients with EZH2 wild-type status, 800 mg orally twice daily
# [4] = tafasitamab in combination with lenalidomide, R/R DLBCL
# [5] = tafasitamab in combination with lenalidomide, listed with the G3/4 events
compound,measurement,setting,value
"CCN(c1cc(-c2ccc(CN3CCOCC3)cc2)cc(C(=O)NCc2c(C)cc(C)[nH]c2=O)c1C)C1CCOCC1 [Tazemetostat, N-[(1,2-dihydro-4,6-dimethyl-2-oxo-3-pyridinyl)methyl]-5-[ethyl (tetrahydro-2H-pyran-4-yl)amino]-4-methyl-4′-(4-morpholinylmethyl)-[1,1′-biphenyl]-3-carboxamide]","Grade 3/4 anemia, patients",[1]; 800 mg orally twice daily,8%
same,"Grade 3/4 neutropenia, patients",[1]; 800 mg orally twice daily,7%
same,"Grade 3/4 thrombocytopenia, patients",[1]; 800 mg orally twice daily,7%
same,"Serious AEs, patients",[1]; 800 mg orally twice daily,30%
same,CR rate,"[1]; 42 patients with EZH2 mutated status, 800 mg orally twice daily",12%
same,ORR,"[1]; 42 patients with EZH2 mutated status, tazemetostat 800 mg orally twice daily",69%
same,CR rate,[1]; [3],4%
same,ORR,[1]; [3],34%
same,mDOR,"[1]; EZH2 wild-type cohort, 800 mg orally twice daily",13 months
same,"most common AEs of all grades, frequency","[1]; fatigue, upper respiratory tract infection, nausea, abdominal pain and musculoskeletal pain",≥ 20%
same,"most common serious AEs, patients","[1]; general physical health deterioration, abdominal pain, pneumonia, sepsis and anemia",at least 2%
same,mDOR,"[1]; patients with EZH2 mutated status, 800 mg orally twice daily",10.9 months
Cn1c(CCCC(=O)O)nc2cc(N(CCCl)CCCl)ccc21 [bendamustine],PFS (primary endpoint),[2]; median follow-up 21.9 months (obinutuzumab plus bendamustine) and 20.3 months (bendamustine monotherapy),14.9 months
same,"Febrile neutropenia, occurrence",[2]; per arm,uncommon
same,"Grade 3/4 anemia, patients",[2]; per arm,8%
same,"Grade 3/4 neutropenia, patients",[2]; per arm,26%
same,"Grade 3/4 thrombocytopenia, patients",[2]; per arm,15%
same,"Serious AEs, patients",[2]; per treatment group,33%
same,"deaths due to adverse events, patients",[2]; per treatment group,6%
tafasitamab: anti-CD19 monoclonal antibody; results are for the combination with lenalidomide,objective response rate (ORR),"patients with R/R DLBCL; tafasitamab 12 mg/kg intravenously in combination with lenalidomide 25 mg orally, R/R DLBCL, 81 participants",60%
same,complete response (CR) rate,"patients with R/R DLBCL; tafasitamab 12 mg/kg intravenously in combination with lenalidomide, R/R DLBCL, 81 participants",34%
same,"G3/4 febrile neutropenia, patients",patients with R/R DLBCL; [4],12%
same,"G3/4 neutropenia, patients",patients with R/R DLBCL; [4],48%
same,"Serious AEs, patients",patients with R/R DLBCL; [4],52%
same,"Serious AEs: febrile neutropenia, patients",patients with R/R DLBCL; [4],6%
same,"Serious AEs: pneumonia, patients",patients with R/R DLBCL; [4],6%
same,median duration of response,patients with R/R DLBCL; [4],21.7 months
same,"anemia, patients",patients with R/R DLBCL; [5],7%
same,"thrombocytopenia, patients",patients with R/R DLBCL; [5],17%
same,"most common adverse events (AEs) of all grades, frequency","patients with R/R DLBCL; tafasitamab in combination with lenalidomide, neutropenia, fatigue, anemia, diarrhea, thrombocytopenia, cough, pyrexia, peripheral edema, rash, decreased appetite",≥ 20%
